Source: US4297353A, “Non-irritating injectable dosage forms” (priority 1980, dated 1981)
Like-named read-outs stand apart in the source and are kept apart here.

Columns and labels:
[1] = tested on: muscles of rabbits (sacrospinales group); assay: Intramuscular tissue irritation in rabbits, microscopic observations (Example 2)
[2] = tested on: muscles of rabbits (sacrospinales group); details: rabbit, in vivo

Row | Compound | evidence of suppuration in the inflammatory zone ([1]; Day 4 post-injection, regardless of concentration) | evidence of connective tissue irritation ([1]; Day 7 and Day 14) | evidence of connective tissue irritation [2]
1 | CSc1ccc2c(c1)N(CCC1CCCCN1C)c1ccccc1S2 (stereo not drawn) [Mellaril base, thioridazine] | high-frequency evidence of suppuration | became apparent by Day 7 and more frequent and extreme in its occurrence by Day 14 | 
2 | CN(C)CCCN1c2ccccc2Sc2ccc(Cl)cc21 [chloropromazine, Chlorpromazine] |  |  | became apparent by Day 7 and more frequent and extreme in its occurrence by Day 14
